From patent US4962109A, “Insecticidally and acaricidally active pyrimidine esters and intermediates therefor” (Imperial Chemical Industries PLC, priority 1985, dated 1990)

What was measured:
Type in all cases: in vivo
insect and acarine pests = test: Biological screening of enantiomers, insecticidal and acaricidal activity; details: (-) versus (+) enantiomer
[1] = tested on: Tetranychus urticae (spider mites - adult); test: Contact test on spider mites - adult (TUa), French bean leaf, mortality; details: 72 h, 500 ppm, contact, 3 days, read-out: TUa grading of mortality
Outline: (§1)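 Graded read-out: A 80-100%, B 50-79%, C below 50% mortality or knockdown, assessed usually 1-3 days post-treatment. Liquid preparations at 500, 250 or 100 ppm by weight, from acetone solution diluted in water with 0.01% wetting agent, applied to pests and/or their host plant or food medium.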

[2] = tested on: Musca domestica (houseflies - adults); test: Knockdown test on houseflies - adults (MD/KD), Cotton wool/sugar; details: 500 ppm, 4 hours, read-out: MD/KD grading of knockdown
Outline: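 Adult houseflies exposed to the compound at 500, 250 or 100 ppm in acetone/water with 0.01% wetting agent, on a cotton wool/sugar medium. Knockdown and mortality assessed, graded A (80-100%), B (50-79%) or C (<50%).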

Myzus persicae (aphids) = test: Contact test on aphids (MP), Chinese Cabbage leaf, mortality; details: 72 h, 500 ppm, contact, 3 days, read-out: MP grading of mortality
Outline: as §1

[3] = tested on: Blattella germanica (cockroach nymphs); test: Residual test on cockroach nymphs (BG/R), Plastic pot, mortality; details: 72 h, 3 days, read-out: BG/R grading of mortality
Description: (§2) The activity of the Product was determined using a variety of insect pests. The Product was used in the form of liquid preparations containing 500, 250 or 100 parts per million (ppm) by weight of the Product. The preparations were made by dissolving the Product in acetone and diluting the solutions with water containing 0.01% by weight of a wetting agent sold under the trade name "LISSAPOL" NX until the liquid preparations contained the required concentration of the Product. "Lissapol" is a Registered Trade Mark.
(§3) The test procedure adopted with regard to each pest was basically the same and comprised supporting a number of the pests on a medium which was usually a host plant or a foodstuff on which the pests feed, and treating either or both the pests and the medium with the preparations. The mortality of the pests was then assessed at periods usually varying from one to three days after the treatment.
(§4) The results of the tests are given in Table III for each of the Products, at the rate in parts per million given in the second column as a grading of mortality designated as A, B or C wherein A indicates 80-100% mortality or knockdown, B indicates 50-79% mortality or knockdown and C indicates less than 50% mortality or knockdown.
BG/R Blattella germanica

[4] = tested on: Heliothis virescens (tobacco budworm - larvae); test: Residual test on tobacco budworm larvae (HV), Cotton leaf, mortality; details: 48 h, read-out: HV grading of mortality
Outline: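 Product in acetone diluted with water containing 0.01% Lissapol NX, at 500, 250 or 100 ppm; pests and/or host medium (here cotton leaf) treated. Mortality scored one to three days later, graded A (80-100%), B (50-79%), C (<50%).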

[5] = tested on: Spodoptera exigua (lesser army worm - larvae); test: Residual test on lesser army worm larvae (SP), Cotton leaf, mortality; details: 48 h, 500 ppm, residual, * test duration of 3 days, read-out: SP grading of mortality
Outline: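 Product dissolved in acetone and diluted in water with 0.01% wetting agent to 500, 250 or 100 ppm; larvae and/or cotton leaf host treated. Mortality or knockdown scored one to three days later and graded A (80-100%), B (50-79%) or C (<50%).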

[6] = tested on: Diabrotica balteata (rootworm larvae); test: Residual test on rootworm larvae (DB), Filter paper/maize seed, mortality; details: 48 h, 500 ppm, residual, * test duration of 3 days, read-out: DB grading of mortality
Outline: as §1

[7] = tested on: Musca domestica (houseflies - adults); test: Contact test on houseflies - adults (MD), Cotton wool/sugar, mortality; details: 24 h, 500 ppm, contact, ** test duration of 1 day, read-out: MD grading of mortality
Outline: as §1

[8] = tested on: Nilaparvata lugens (brown plant hopper); test: Contact test on brown plant hopper (NL), Rice plant, mortality; details: 72 h, 3 days, read-out: NL grading of mortality
Description: as §2, §3, §4

[9] = tested on: Tetranychus urticae (spider mites - ova); test: Contact test on spider mites - ova (TUe), French bean leaf, mortality; details: 144 h, 500 ppm, contact, 6 days, read-out: TUe grading of mortality
Outline: as §1

COCc1c(F)c(F)c(COC(=O)C(c2cnc(C(C)(C)C)nc2)C(C)(C)C)c(F)c1F (single isomer, unassigned; enantiomer 4) [(-)-enantiomer, 4-(methoxymethyl)-2,3,5,6-tetrafluorobenzyl 2-[2-(1,1-dimethylethyl)pyrimidin-5-yl]-3,3-dimethylbutanoate]
insecticidal and acaricidal activity of enantiomers (insect and acarine pests): substantially greater insecticidal and acaricidal activity than the (+)-enantiomer

C=CCc1c(F)c(F)c(COC(=O)C(c2cnc(-c3ccccc3)nc2)C(C)C)c(F)c1F (racemic) [Compound 113, 4-(prop-2-en-1-yl)-2,3,5,6-tetrafluorobenzyl (RS)-2-[2-phenylpyrimidin-5-yl)-3-methylbutanoate]
mortality at 500 ppm [1]: < 50% | pest or weed control at 500 ppm [2]: 80 to 100% | mortality at 500 ppm (Myzus persicae (aphids)): 50 to 79% | mortality at 500 ppm [3]: < 50% | mortality at 500 ppm [4]: < 50% | mortality at 500 ppm [5]: < 50% | mortality at 500 ppm [6]: < 50% | mortality at 500 ppm [7]: 80 to 100% | mortality at 500 ppm [8]: < 50% | mortality at 500 ppm [9]: < 50%

CC[C@@H](C(=O)O[C@@H](C#N)c1ccc(F)c(Oc2ccccc2)c1)c1cnc(C(C)(C)C)nc1 (racemic) [Compound 121, (RS)-α-cyano-4-fluoro-3-phenoxybenzyl (RS)-2-[2-(1,1-dimethylethyl)pyrimidin-5-yl]butanoate]
mortality at 500 ppm [1]: 80 to 100% | pest or weed control at 500 ppm [2]: 50 to 79% | mortality at 500 ppm (Myzus persicae (aphids)): 80 to 100% | mortality at 500 ppm [3]: < 50% | mortality at 500 ppm [4]: 80 to 100% | mortality at 500 ppm [5]: 80 to 100% | mortality at 500 ppm [6]: 80 to 100% | mortality at 500 ppm [7]: 80 to 100% | mortality at 500 ppm [8]: < 50% | mortality at 500 ppm [9]: < 50%

C=CCc1c(F)c(F)c(COC(=O)C(c2cnc(N(C)C)nc2)C(C)C)c(F)c1F (racemic) [Compound 115, 2,3,5,6-tetrafluoro-4-(prop-2-en-1-yl)benzyl (RS)-2-[2-(N,N-dimethylamino)pyrimidin-5-yl]-3-methylbutanoate]
mortality at 500 ppm [1]: 80 to 100% | pest or weed control at 500 ppm [2]: < 50% | mortality at 500 ppm (Myzus persicae (aphids)): 80 to 100% | mortality at 500 ppm [3]: 80 to 100% | mortality at 500 ppm [4]: 80 to 100% | mortality at 500 ppm [5]: 80 to 100% | mortality at 500 ppm [6]: < 50% | mortality at 500 ppm [7]: 80 to 100% | mortality at 500 ppm [8]: < 50% | mortality at 500 ppm [9]: 80 to 100%
